Test system: α1-adrenoceptors
Test: inhibition of [7-methoxy-3H]prazosin binding to α1-adrenoceptors in rat whole cortical tissue
Details: at 10^-6 M; rat whole cortex, [7-methoxy-3H]prazosin; 30 min, 1 µM
Method: Whole cortical tissue from the brains of male Charles River CD rats weighing between 150-250 g were homogenised in ice-cold 50 mM Tris-HCl, pH 7.6 (at 25° C.; 1:40 w/v) and centrifuged at 1000 g at 4° C. for 10 minutes. The supernatant was centrifuged at 30,000 g at 4° C. for 10 minutes. The pellet was rehomogenised in 50 mM Tris-HCl, pH 7.6 (1:40 w/v) and centrifuged at 30,000 g at 4° C. for 10 minutes. The final pellet was resuspended in 50 mM Tris-HCl, pH 7.6 (equivalent to 12.5 mg wet weight of tissue/ml) and used immediately in the binding assay. Aliquots (400 μl; equivalent to 5 mg wet weight of tissue/tube) of this suspension were added to tubes containing the ligand (50 μl; 0.1 nM) and distilled water (50 μl; total binding) or phentolamine (50 μl; 5 μM; non-specific binding) or test compound (50 μl; at a single concentration of 10^-6 M or at 10 concentrations ranging from 10^-11 -10^-3 M). The ligand was [7-methoxy-^3 H]prazosin and the mixture was incubated at 30° C. for 30 minutes before the incubation was terminated by rapid filtration.
The filters were washed with ice-cold Tris-HCl buffer and dried. The filters were punched out into vials, scintillation fluid added and radioactivity determined by liquid scintillation counting. The percentage displacement of specific binding of the tritiated ligand was calculated for the single concentration (10^-6 M) of test compound. Displacement curves were then produced for those compounds which displaced ≥50% of specific binding of the tritiated ligand at 10^-6 M using a range of concentrations of the compound. The concentration which gave 50% inhibition of specific binding (IC50) was obtained from the curve. The inhibition coefficient Ki was then calculated using the formula [formula] in which [ligand] is the concentration of the tritiated ligand used and KD is the equilibrium dissociation constant for the ligand.

| Structure (SMILES) | % displacement of radio ligand, α1 [%] |
| --- | --- |
| Nc1ncccc1C(=O)NCC1CCN(C[C@H]2COc3ccc(Cl)cc3O2)CC1 [Example 1, (S)-(-)-2-amino-N-{[1-(7-chloro-1,4-benzodioxan-2-ylmethyl)-4-piperidyl]methyl}pyridine-3-carboxamide] | 89 |
| Nc1ncccc1C(=O)NCC1CCN(C[C@H]2COc3cccc(Cl)c3O2)CC1 [Example 2, (S)-2-amino-N-{[1-(8-chloro-1,4-benzodioxan-2-ylmethyl)-4-piperidyl]methyl}-pyridine-3-carboxamide] | 100 |
| Nc1ncccc1C(=O)NCC1CCN(CC2COc3ccccc3O2)CC1 (stereo not drawn) [Example 4, 2-amino-N-{[1-(1,4-benzodioxan-2-ylmethyl)-4-piperidyl]methyl}pyridine-3-carboxamide] | 89 |

Same assay, conditions: rat whole cortex, [7-methoxy-3H]prazosin 0.1 nM, 30° C., 30 min

| Structure (SMILES) | Ki [nM] |
| --- | --- |
| Nc1ncccc1C(=O)NCC1CCN(C[C@H]2COc3cccc(F)c3O2)CC1 [Example 3, (S)-(-)-2-amino-N-{[1-(8-fluoro-1,4-benzodioxan-2-ylmethyl)-4-piperidyl]methyl}pyridine-3-carboxamide] | 5.3 |
| Cc1ccc2c(c1)O[C@@H](CN1CCC(CNC(=O)c3cccnc3N)CC1)CO2 [Example 5, (S)-2-amino-N-{[1-(7-methyl-1,4-benzodioxan-2-ylmethyl)-4-piperidyl]methyl}pyridine-3-carboxamide] | 65 |
| O=C(NCC1CCN(CC2COc3ccccc3O2)CC1)c1ccccn1 (stereo not drawn) [Example 6, N-{[1-(1,4-benzodioxan-2-ylmethyl)-4-piperidyl]methyl}pyridine-2-carboxamide] | 21 |
| COc1ccc2c(c1)O[C@@H](CN1CCC(CNC(=O)c3cccnc3N)CC1)CO2 [Example 7, (S)-2-amino-N{[1-(7-methoxy-1,4-benzodioxan-2-ylmethyl)-4-piperidyl]methyl}-pyridine-3-carboxamide] | 104 |
| O=C(NCC1CCN(CC2COc3ccccc3O2)CC1)c1cccc2cccnc12 (stereo not drawn) [Example 8, N-{[1-(1,4-benzodioxan-2-ylmethyl)-4-piperidyl]methyl}quinoline-8-carboxamide] | 8 |
| Cc1ncccc1C(=O)NCC1CCN(C[C@H]2COc3cccc(Cl)c3O2)CC1 [Example 9, (S)-N-{[1-(8-chloro-1,4-benzodioxan-2-ylmethyl)-4-piperidyl]methyl}-2-methylpyridine-3-carboxamide] | 20 |
| Nc1ncccc1C(=O)NCC1CCN(CC2COc3ccc(F)cc3O2)CC1 (stereo not drawn) [Example 10, 2-amino-N-{[1-(7-fluoro-1,4-benzodioxan-2-ylmethyl)-4-piperidyl]methyl}pyridine-3-carboxamide] | 140 |
| COc1cccc2c1OC(CN1CCC(CNC(=O)c3cccnc3N)CC1)CO2 (stereo not drawn) [Example 11, 2-amino-N-{[1-(8-methoxy-1,4-benzodioxan-2-ylmethyl)-4-piperidyl]methyl}pyridine-3-carboxamide] | 18 |
| O=C(NCC1CCN(C[C@H]2COc3ccc(Cl)cc3O2)CC1)c1ccccn1 [Example 12, (S)-N-{[1-(7-chloro-1,4-benzodioxan-2-ylmethyl)-4-piperidyl]methyl}pyridine-2-carboxamide] | 132 |
| Cc1cccc2c1O[C@@H](CN1CCC(CNC(=O)c3cccnc3N)CC1)CO2 [Example 13, (S)-2-amino-N-{[1-(8-methyl-1,4-benzodioxan-2-ylmethyl)-4-piperidyl]methyl}pyridine-3-carboxamide] | 10 |
| Cc1ccc(C(=O)NCC2CCN(C[C@H]3COc4ccc(Cl)cc4O3)CC2)c(N)n1 [Example 14, (S)-2-amino-N-{[1-(7-chloro-1,4-benzodioxan-2-ylmethyl)-4-piperidyl]methyl}-6-methylpyridine-3-carboxamide] | 75 |
| Nc1ncccc1C(=O)NCC1CCN(C[C@H]2COc3ccccc3O2)CC1 [Example 15, (S)-2-amino-N-{[1-(1,4-benzodioxan-2-ylmethyl)-4-piperidyl]methyl}pyridine-3-carboxamide] | 17 |
| Nc1ccsc1C(=O)NCC1CCN(CC2COc3ccccc3O2)CC1 (stereo not drawn) [Example 16, 3-amino-N-{[1-(1,4-benzodioxan-2-ylmethyl)-4-piperidyl]methyl}thiophene-2-carboxamide] | 2 |
| Nc1ccsc1C(=O)NCC1CCN(C[C@H]2COc3ccc(Cl)cc3O2)CC1 [Example 17, (S)-3-amino-N-{[1-(7-chloro-1,4-benzodioxan-2-ylmethyl)-4-piperidyl]methyl}thiophene-2-carboxamide] | 70 |
| Cc1ncccc1C(=O)NCC1CCN(C[C@H]2COc3ccc(Cl)cc3O2)CC1 [Example 18, (S)-N-{[1-(7-chloro-1,4-benzodioxan-2-ylmethyl)-4-piperidyl]methyl}-2-methylpyridine-3-carboxamide] | 298 |
| Nc1ncccc1C(=O)NCC1CCN(C[C@H]2COc3cccc(C(F)(F)F)c3O2)CC1 [Example 20, (S)-2-amino-N-{[1-(8-trifluoromethyl-1,4-benzodioxan-2-ylmethyl)-4-piperidyl]methyl}pyridine-3-carboxamide] | 4 |
| O=C(NCC1CCN(C[C@H]2COc3ccc(Cl)cc3O2)CC1)c1cccnc1 [Example 22, (S)-N-{[1-(7-chloro-1,4-benzodioxan-2-ylmethyl)-4-piperidyl]methyl}pyridine-3-carboxamide] | 172 |
| O=C(NCC1CCN(C[C@H]2COc3ccc(Cl)cc3O2)CC1)c1cccc2cccnc12 [Example 23, (S)-N-{[1-(7-chloro-1,4-benzodioxan-2-ylmethyl)-4-piperidyl]methyl}quinoline-8-carboxamide] | 44 |

From patent publication US5935973A, “Heterocyclcarboxamide derivatives and their use as therapeutic agents” (Knoll Aktiengesellschaft, priority 1995, dated 1999)
